pIC50: −log10 of the molar value. Read-outs that look alike come from different tables or passages of the source.
Biological target: T1, Recombinant human cathepsin A (Homo sapiens, UniProt P10619)
T1 construct: Recombinant human cathepsin A (residues 29-480, with a C-terminal 10-His tag); 10-His (C); purchased R&D Systems 1049-SE
T1 sequence (P10619 29-312 limits assumed): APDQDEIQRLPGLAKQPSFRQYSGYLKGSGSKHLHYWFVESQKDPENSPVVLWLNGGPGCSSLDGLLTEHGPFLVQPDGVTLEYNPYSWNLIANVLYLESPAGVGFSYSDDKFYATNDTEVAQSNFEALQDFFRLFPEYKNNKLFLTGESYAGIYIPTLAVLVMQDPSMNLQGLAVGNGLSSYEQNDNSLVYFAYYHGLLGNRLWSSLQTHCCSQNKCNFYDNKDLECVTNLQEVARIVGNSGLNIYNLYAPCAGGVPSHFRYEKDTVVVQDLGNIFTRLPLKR
T1 sequence (P10619 327-480 limits assumed): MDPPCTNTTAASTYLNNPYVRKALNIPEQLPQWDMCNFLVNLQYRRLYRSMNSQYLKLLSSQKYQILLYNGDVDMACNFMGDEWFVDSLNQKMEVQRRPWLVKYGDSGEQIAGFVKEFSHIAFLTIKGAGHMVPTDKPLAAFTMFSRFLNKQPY
Test: Cathepsin A inhibitory activity
Assay type: biochemical
Method in brief: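 Human cathepsin A (res. 29-480, C-His10) pre-activated with cathepsin L (MES pH 6.0, DTT, 15 min, 37 °C; quenched with 10 μM E-64). Enzyme (833 ng/ml) preincubated 15 min RT with compound in MES pH 5.5/DTT, then 2 μM Bodipy FL-bradykinin for 15 min RT. Capillary electrophoresis product/substrate peak areas; IC50 from % inhibition.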

[1] = recombinant human cathepsin A 833 ng/ml, Bodipy FL-labeled bradykinin 2 μM, pH 5.5, read-out: CATH-A IC50
[2] = recombinant human cathepsin A, read-out: Activity (2): Cathepsin A inhibitory activity, IC50 class

pIC50 [1] | pIC50 [2] | Compound
6.05 | 6.00 to 7.00 | CN(C)c1ccc(C(CC(=O)O)NC(=O)c2cc(O)n(-c3ccc(F)cc3F)n2)c(Cl)c1 (stereo not drawn) [Example 448, 3-(2-Chloro-4-dimethylamino-phenyl)-3-{[1-(2,4-difluoro-phenyl)-5-hydroxy-1H-pyrazole-3-carbonyl]-amino}-propionic acid]
6.75 | 6.00 to 7.00 | COc1cccc(F)c1C(CC(=O)O)NC(=O)c1cc(O)n(-c2ccc(F)cc2F)n1 (stereo not drawn) [Example 449, 3-{[1-(2,4-Difluoro-phenyl)-5-hydroxy-1H-pyrazole-3-carbonyl]-amino}-3-(2-fluoro-6-methoxy-phenyl)-propionic acid]
6.39 | 6.00 to 7.00 | O=C(O)CC(NC(=O)c1cc(O)n(-c2ccc(F)cc2F)n1)c1cccc2c1OC(F)(F)O2 (stereo not drawn) [Example 450, 3-(2,2-Difluoro-benzo[1,3]dioxol-4-yl)-3-{[1-(2,4-difluoro-phenyl)-5-hydroxy-1H-pyrazole-3-carbonyl]-amino}-propionic acid]
6.63 | 6.00 to 7.00 | O=C(O)CC(NC(=O)c1cc(O)n(-c2ccc(F)cc2F)n1)c1cc(F)ccc1F (stereo not drawn) [Example 451, 3-(2,5-Difluoro-phenyl)-3-{[1-(2,4-difluoro-phenyl)-5-hydroxy-1H-pyrazole-3-carbonyl]-amino}-propionic acid]
6.86 | 6.00 to 7.00 | O=C(O)CC(NC(=O)c1cc(O)n(-c2ccc(F)cc2F)n1)c1cc(F)ccc1C(F)(F)F (stereo not drawn) [Example 452, 3-{[1-(2,4-Difluoro-phenyl)-5-hydroxy-1H-pyrazole-3-carbonyl]-amino}-3-(5-fluoro-2-trifluoromethyl-phenyl)-propionic acid]
6.60 | 6.00 to 7.00 | COc1ccc(F)cc1C(CC(=O)O)NC(=O)c1cc(O)n(-c2ccc(F)cc2F)n1 (stereo not drawn) [Example 453, 3-{[1-(2,4-Difluoro-phenyl)-5-hydroxy-1H-pyrazole-3-carbonyl]-amino}-3-(5-fluoro-2-methoxy-phenyl)-propionic acid]
6.73 | 6.00 to 7.00 | Cc1ccc([C@H](CC(=O)O)NC(=O)c2cc(O)n(-c3ccc(F)cc3F)n2)cc1 [Example 454, (S)-3-{[1-(2,4-Difluoro-phenyl)-5-hydroxy-1H-pyrazole-3-carbonyl]-amino}-3-p-tolyl-propionic acid]
6.81 | 6.00 to 7.00 | Cc1c(F)cccc1C(CC(=O)O)NC(=O)c1cc(O)n(-c2ccccc2Cl)n1 (stereo not drawn) [Example 455, 3-{[1-(2-Chloro-phenyl)-5-hydroxy-1H-pyrazole-3-carbonyl]-amino}-3-(3-fluoro-2-methyl-phenyl)-propionic acid]
 | 4.52 to 6.00 | CN(C)c1ccc(C(CC(=O)O)NC(=O)c2cc(O)n(-c3ccccc3Cl)n2)c(Cl)c1 (stereo not drawn) [Example 456]
6.77 | 6.00 to 7.00 | COc1cccc(F)c1C(CC(=O)O)NC(=O)c1cc(O)n(-c2ccccc2Cl)n1 (stereo not drawn) [Example 457, 3-{[1-(2-Chloro-phenyl)-5-hydroxy-1H-pyrazole-3-carbonyl]-amino}-3-(2-fluoro-6-methoxy-phenyl)-propionic acid]
6.65 | 6.00 to 7.00 | O=C(O)CC(NC(=O)c1cc(O)n(-c2ccccc2Cl)n1)c1cc(F)ccc1Cl (stereo not drawn) [Example 458, 3-(2-Chloro-5-fluoro-phenyl)-3-{[1-(2-chloro-phenyl)-5-hydroxy-1H-pyrazole-3-carbonyl]-amino}-propionic acid]
6.89 | 6.00 to 7.00 | O=C(O)CC(NC(=O)c1cc(O)n(-c2ccccc2Cl)n1)c1cc(F)ccc1F (stereo not drawn) [Example 459, 3-{[1-(2-Chloro-phenyl)-5-hydroxy-1H-pyrazole-3-carbonyl]-amino}-3-(2,5-difluoro-phenyl)-propionic acid]
6.93 | 6.00 to 7.00 | O=C(O)CC(NC(=O)c1cc(O)n(-c2ccccc2Cl)n1)c1cc(F)ccc1C(F)(F)F (stereo not drawn) [Example 460, 3-{[1-(2-Chloro-phenyl)-5-hydroxy-1H-pyrazole-3-carbonyl]-amino}-3-(5-fluoro-2-trifluoromethyl-phenyl)-propionic acid]
6.82 | 6.00 to 7.00 | Cc1ccc(F)cc1C(CC(=O)O)NC(=O)c1cc(O)n(-c2ccccc2Cl)n1 (stereo not drawn) [Example 461, 3-{[1-(2-Chloro-phenyl)-5-hydroxy-1H-pyrazole-3-carbonyl]-amino}-3-(5-fluoro-2-methyl-phenyl)-propionic acid]
7.09 | > 7.00 | O=C(O)CC(NC(=O)c1cc(O)n(-c2ccccc2Cl)n1)c1cc(Cl)ccc1Cl (stereo not drawn) [Example 462, 3-{[1-(2-Chloro-phenyl)-5-hydroxy-1H-pyrazole-3-carbonyl]-amino}-3-(2,5-dichloro-phenyl)-propionic acid]
4.96 | 4.52 to 6.00 | CN(C)c1ccc(C(CC(=O)O)NC(=O)c2cc(O)n(-c3cccc(Cl)c3)n2)c(Cl)c1 (stereo not drawn) [Example 463, 3-(2-Chloro-4-dimethylamino-phenyl)-3-{[1-(3-chloro-phenyl)-5-hydroxy-1H-pyrazole-3-carbonyl]-amino}-propionic acid]
6.56 | 6.00 to 7.00 | O=C(O)CC(NC(=O)c1cc(O)n(-c2cccc(Cl)c2)n1)c1cccc2c1OC(F)(F)O2 (stereo not drawn) [Example 464, 3-{[1-(3-Chloro-phenyl)-5-hydroxy-1H-pyrazole-3-carbonyl]-amino}-3-(2,2-difluoro-benzo[1,3]dioxol-4-yl)-propionic acid]
6.13 | 6.00 to 7.00 | O=C(O)CC(NC(=O)c1cc(O)n(-c2cccc(Cl)c2)n1)c1cc(F)ccc1F (stereo not drawn) [Example 465, 3-{[1-(3-Chloro-phenyl)-5-hydroxy-1H-pyrazole-3-carbonyl]-amino}-3-(2,5-difluoro-phenyl)-propionic acid]
6.25 | 6.00 to 7.00 | O=C(O)CC(NC(=O)c1cc(O)n(-c2cccc(Cl)c2)n1)c1cc(F)ccc1C(F)(F)F (stereo not drawn) [Example 466, 3-{[1-(3-Chloro-phenyl)-5-hydroxy-1H-pyrazole-3-carbonyl]-amino}-3-(5-fluoro-2-trifluoromethyl-phenyl)-propionic acid]
5.65 | 4.52 to 6.00 | O=C(O)CC(NC(=O)c1cc(O)n(-c2cccc(Cl)c2)n1)c1ccccc1SC(F)(F)F (stereo not drawn) [Example 467, 3-{[1-(3-Chloro-phenyl)-5-hydroxy-1H-pyrazole-3-carbonyl]-amino}-3-(2-trifluoromethylsulfanyl-phenyl)-propionic acid]
6.55 | 6.00 to 7.00 | Cc1c(F)cccc1C(CC(=O)O)NC(=O)c1cc(O)n(-c2ccc(Cl)cc2)n1 (stereo not drawn) [Example 468, 3-{[1-(4-Chloro-phenyl)-5-hydroxy-1H-pyrazole-3-carbonyl]-amino}-3-(3-fluoro-2-methyl-phenyl)-propionic acid]
6.07 | 6.00 to 7.00 | COc1cccc(F)c1C(CC(=O)O)NC(=O)c1cc(O)n(-c2ccc(Cl)cc2)n1 (stereo not drawn) [Example 469, 3-{[1-(4-Chloro-phenyl)-5-hydroxy-1H-pyrazole-3-carbonyl]-amino}-3-(2-fluoro-6-methoxy-phenyl)-propionic acid]
6.40 | 6.00 to 7.00 | O=C(O)CC(NC(=O)c1cc(O)n(-c2ccc(Cl)cc2)n1)c1cc(F)ccc1Cl (stereo not drawn) [Example 470, 3-(2-Chloro-5-fluoro-phenyl)-3-{[1-(4-chloro-phenyl)-5-hydroxy-1H-pyrazole-3-carbonyl]-amino}-propionic acid]

Reference: patent US8664257B2, “Oxygen-substituted 3-heteroaroylamino-propionic acid derivatives and their use as pharmaceuticals” (Sanofi, priority 2010, dated 2014)
